Experimental data: PubChem BioAssay AID328 (DTP/NCI, 2004)
Where “and” joins values, the source holds several entries; their conditions need not be identical. Equal entries are not always repeated. Toxic doses and inconclusive results are not listed.

Test system: BDF1 mice, P388 leukemia ip, median survival T/C
Test: NCI In Vivo Anticancer Drug Screen. Data for tumor model P388 Leukemia (intraperitoneal) in B6D2F1 (BDF1) mice
Settings: endpoint: median survival time, higher = longer survival
Outline: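 Vehicle-dosed animals serve as the reference; survival of compound-dosed, tumour-implanted mice is divided by it.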

[1] = dose: 12.5 mg/kg/injection, schedule: Q01DX009 (ip), vehicle: Klucel (hydroxypropylcellulose) (HPC)
[2] = dose: 25.0 mg/kg/injection, schedule: Q01DX009 (ip), vehicle: Klucel (hydroxypropylcellulose) (HPC)
[3] = dose: 25.0 mg/kg/injection, schedule: Q01DX009 (ip), vehicle: saline with Tween-80
[4] = dose: 50.0 mg/kg/injection, schedule: Q01DX009 (ip), vehicle: saline with Tween-80
[5] = dose: 100.0 mg/kg/injection, schedule: Q01DX009 (ip), vehicle: saline with Tween-80
[6] = dose: 200.0 mg/kg/injection, schedule: Q01DX009 (ip), vehicle: saline with Tween-80
[7] = dose: 25.0 mg/kg/injection, schedule: Q01DX009 (ip), vehicle: saline
[8] = dose: 50.0 mg/kg/injection, schedule: Q01DX009 (ip), vehicle: saline
[9] = dose: 100.0 mg/kg/injection, schedule: Q01DX009 (ip), vehicle: saline
[10] = dose: 200.0 mg/kg/injection, schedule: Q01DX009 (ip), vehicle: saline
[11] = dose: 100.0 mg/kg/injection, schedule: Q04DX003 (ip), vehicle: saline
[12] = dose: 100.0 mg/kg/injection, schedule: Q01DX001 (ip), vehicle: saline with Tween-80
[13] = dose: 100.0 mg/kg/injection, schedule: Q04DX003 (ip), vehicle: saline with Tween-80
[14] = dose: 200.0 mg/kg/injection, schedule: Q04DX003 (ip), vehicle: saline with Tween-80
[15] = dose: 400.0 mg/kg/injection, schedule: Q04DX003 (ip), vehicle: saline with Tween-80
[16] = dose: 50.0 mg/kg/injection, schedule: Q01DX005 (ip), vehicle: saline with Tween-80
[17] = dose: 100.0 mg/kg/injection, schedule: Q01DX005 (ip), vehicle: saline with Tween-80
[18] = dose: 200.0 mg/kg/injection, schedule: Q01DX005 (ip), vehicle: saline with Tween-80

In the case of `NC(CO)Cc1ccccc1` (stereo not drawn), the T/C [1] is reported as 106 % of control and the T/C [2] is reported as 91 % of control.

In the case of `COc1ccc(C(=O)CC(c2ccc3c(c2)OCO3)c2c(O)c3ccccc3oc2=O)cc1OC` (stereo not drawn), the T/C [3] is reported as 91 % of control, the T/C [4] is reported as 116 % of control and the T/C (dose: 75.0 mg/kg/injection, schedule: Q01DX009 (ip), vehicle: saline with Tween-80) is reported as 88 % of control. The T/C [5] was 97 % of control and 123 % of control, the T/C (dose: 150.0 mg/kg/injection, schedule: Q01DX009 (ip), vehicle: saline with Tween-80) was 101 % of control and the T/C [6] was 87 % of control.

For `CC(=N\O)/C(C)=N/O.CC(=N\O)/C(C)=N/O.[Cl][Rh][Cl]`, the T/C [7] was 94 % of control, the T/C [8] was 119 % of control and the T/C [9] was 95 % of control and 119 % of control. The T/C [10] was 100 % of control.

`O=[P+](O)C(O)c1ccccc1` (stereo not drawn) was tested, and the T/C [11] was 100 % of control, the T/C (dose: 200.0 mg/kg/injection, schedule: Q04DX003 (ip), vehicle: saline) was 108 % of control and the T/C (dose: 400.0 mg/kg/injection, schedule: Q04DX003 (ip), vehicle: saline) was 91 % of control.

With `Cc1cc(N)c(C)c([N+](=O)[O-])c1` the T/C [4] was 100 % of control, the T/C [5] was 100 % of control and the T/C [6] was 95 % of control.

`CC(C)(C)CC(C)(C)c1ccc(OCCOS(=O)(=O)c2cccc([N+](=O)[O-])c2)cc1` was tested, and the T/C [4] was 109 % of control, the T/C [5] was 95 % of control and the T/C [6] was 118 % of control.

For `Cc1ccc(C)c2c1[nH]c1c(C)c3ccncc3c(C)c12`, the T/C (dose: 25.0 mg/kg/injection, schedule: Q01DX001 (ip), vehicle: saline with Tween-80) was 101 % of control, the T/C (dose: 50.0 mg/kg/injection, schedule: Q01DX001 (ip), vehicle: saline with Tween-80) was 91 % of control and the T/C [12] was 96 % of control.

In the case of `Cc1ccc(S(=O)(=O)O)cc1`, the T/C [7] is reported as 91 % of control, the T/C [8] is reported as 91 % of control and the T/C (dose: 50.0 mg/kg/injection, schedule: Q04DX003 (ip), vehicle: saline) is reported as 100 % of control. For the same compound, the T/C [9] was 108 % of control and the T/C [11] was 95 % of control.

With `CCCCCCCCCCCCSCCSCCSCCCCCCCCCCCC` the T/C [12] was 95 % of control, the T/C (dose: 200.0 mg/kg/injection, schedule: Q01DX001 (ip), vehicle: saline with Tween-80) was 95 % of control and the T/C (dose: 400.0 mg/kg/injection, schedule: Q01DX001 (ip), vehicle: saline with Tween-80) was 90 % of control.

`O=[N+]([O-])c1ccccc1SNc1ccc(NSc2ccccc2[N+](=O)[O-])cc1` was tested, and the T/C (dose: 3.13 mg/kg/injection, schedule: Q01DX001 (ip), vehicle: saline with Tween-80) was 104 % of control, the T/C (dose: 6.25 mg/kg/injection, schedule: Q01DX001 (ip), vehicle: saline with Tween-80) was 109 % of control and the T/C (dose: 12.5 mg/kg/injection, schedule: Q01DX001 (ip), vehicle: saline with Tween-80) was 95 % of control.

For `Cc1c(CCl)c(C)c(CCl)c(C)c1CCl`, the T/C (dose: 100.0 mg/kg/injection, schedule: Q04DX003 (ip), vehicle: Klucel (hydroxypropylcellulose) (HPC)) was 108 % of control.

With `FC(F)(F)c1cccc(-c2nc3nc(Cl)c(Cl)nc3[nH]2)c1` the T/C [3] was 99 % of control, the T/C [4] was 94 % of control and the T/C (dose: 50.0 mg/kg/injection, schedule: Q04DX003 (ip), vehicle: saline with Tween-80) was 108 % of control. The T/C [5] was 103 % of control.

`CCCCn1cnc2c(=S)nc[nH]c21` was tested, and the T/C (dose: 15.0 mg/kg/injection, schedule: Q01DX010 (ip), vehicle: water) was 100 % of control, the T/C (dose: 16.0 mg/kg/injection, schedule: Q01DX010 (ip), vehicle: saline) was 100 % of control and the T/C (dose: 30.0 mg/kg/injection, schedule: Q01DX010 (ip), vehicle: water) was 90 % of control. The T/C (dose: 32.0 mg/kg/injection, schedule: Q01DX010 (ip), vehicle: saline) was 90 % of control and 95 % of control, the T/C (dose: 64.0 mg/kg/injection, schedule: Q01DX010 (ip), vehicle: saline) was 104 % of control and 113 % of control and the T/C (dose: 128.0 mg/kg/injection, schedule: Q01DX010 (ip), vehicle: saline) was 95 % of control and 104 % of control.

`COc1ccc(C2CCc3cc(OC)c(OC)cc3C2NC=O)cc1OC` (stereo not drawn) was tested, and the T/C (dose: 120.0 mg/kg/injection, schedule: Q01DX009 (ip), vehicle: saline with Tween-80) was 87 % of control and the T/C (dose: 240.0 mg/kg/injection, schedule: Q01DX009 (ip), vehicle: saline with Tween-80) was 95 % of control.

`O=C(Cl)C1C2CC1C(Cl)C2Cl` (stereo not drawn) was tested, and the T/C [4] was 103 % of control, the T/C [5] was 108 % of control and the T/C [6] was 107 % of control.

In the case of `CCCCNC(=O)Nc1ccc(N(C)C)cc1`, the T/C [13] is reported as 90 % of control, the T/C [14] is reported as 90 % of control and the T/C [15] is reported as 100 % of control.

`C=C1C(=O)O[C@@H]2[C@H]3O[C@]3(C)CCC=C(C)CC[C@@H]12` was tested, and the T/C (dose: 6.25 mg/kg/injection, schedule: Q01DX009 (ip), vehicle: alcohol) was 90 % of control, the T/C (dose: 12.5 mg/kg/injection, schedule: Q01DX009 (ip), vehicle: alcohol) was 122 % of control and the T/C (dose: 25.0 mg/kg/injection, schedule: Q01DX009 (ip), vehicle: alcohol) was 122 % of control. For the same compound, the T/C (dose: 50.0 mg/kg/injection, schedule: Q01DX009 (ip), vehicle: alcohol) was 113 % of control.

For `N#Cc1c(O)oc2cccnc12`, the T/C [16] was 92 % of control, the T/C [17] was 97 % of control and the T/C [18] was 103 % of control.

For `COc1ccc2c(c1)c1c(C)c3cnccc3c(C)c1n2CCCN`, the T/C (dose: 1.56 mg/kg/injection, schedule: Q01DX009 (ip), vehicle: saline) was 95 % of control, the T/C (dose: 3.12 mg/kg/injection, schedule: Q01DX009 (ip), vehicle: saline) was 95 % of control and the T/C (dose: 3.12 mg/kg/injection, schedule: Q04DX003 (ip), vehicle: saline) was 112 % of control. For the same compound, the T/C (dose: 6.25 mg/kg/injection, schedule: Q01DX009 (ip), vehicle: saline) was 111 % of control, the T/C (dose: 6.25 mg/kg/injection, schedule: Q04DX003 (ip), vehicle: saline) was 121 % of control and the T/C (dose: 12.5 mg/kg/injection, schedule: Q01DX009 (ip), vehicle: saline) was 105 % of control. The T/C (dose: 12.5 mg/kg/injection, schedule: Q04DX003 (ip), vehicle: saline) was 107 % of control and the T/C (dose: 25.0 mg/kg/injection, schedule: Q04DX003 (ip), vehicle: saline) was 101 % of control and 104 % of control.

`Cn1c2c(c3ccccc3c1=O)C(=O)c1ccccc1-2` was tested, and the T/C [4] was 101 % of control and the T/C [6] was 90 % of control.

For `CCCSCC(C)C`, the T/C [13] was 100 % of control, the T/C [14] was 109 % of control and the T/C [15] was 90 % of control.

With `O.O.O=c1[nH]cc(CO)c(=O)[nH]1.[NH2-].[NH2-].[Pt+2]` the T/C (dose: 3.12 mg/kg/injection, schedule: Q01DX009 (ip), vehicle: Klucel (hydroxypropylcellulose) (HPC)) was 99 % of control, the T/C (dose: 6.25 mg/kg/injection, schedule: Q01DX009 (ip), vehicle: Klucel (hydroxypropylcellulose) (HPC)) was 88 % of control and the T/C [1] was 209 % of control. The T/C [2] was 248 % of control and 211 % of control and the T/C (dose: 50.0 mg/kg/injection, schedule: Q01DX009 (ip), vehicle: Klucel (hydroxypropylcellulose) (HPC)) was 90 % of control.

With `C[C@H](CCC(=O)O)[C@H]1CC[C@H]2[C@@H]3[C@H](O)C[C@@H]4C[C@H](O)CC[C@]4(C)[C@H]3C[C@H](O)[C@]12C` (tested in a mixture with another compound) the T/C [9] was 155 % of control, the T/C (dose: 132.0 mg/kg/injection, schedule: Q04DX003 (ip), vehicle: saline sonified) was 122 % of control and the T/C (dose: 200.0 mg/kg/injection, schedule: Q01DX009 (ip), vehicle: other) was 209 % of control. For the same compound, the T/C [10] was 190 % of control, the T/C (dose: 300.0 mg/kg/injection, schedule: Q04DX003 (ip), vehicle: saline sonified) was 166 % of control and the T/C (dose: 400.0 mg/kg/injection, schedule: Q04DX003 (ip), vehicle: saline sonified) was 172 % of control.

With `Nc1ncnc2c1ncn2C1CC(CO)C(O)C1O` (stereo not drawn) the T/C (dose: 6.25 mg/kg/injection, schedule: Q01DX009 (ip), vehicle: carboxymethylcellulose (CMC)) was 100 % of control and the T/C (dose: 12.5 mg/kg/injection, schedule: Q01DX009 (ip), vehicle: carboxymethylcellulose (CMC)) was 95 % of control.

In the case of `Cc1ccc(NC(=O)Nc2ccccc2F)cc1NC(=O)Nc1ccccc1F`, the T/C [13] is reported as 104 % of control, the T/C [14] is reported as 109 % of control and the T/C [15] is reported as 109 % of control.

For `COC(=O)c1cc(=O)nc(N/N=C/c2ccccc2)s1`, the T/C [16] was 109 % of control, the T/C [17] was 110 % of control and the T/C [18] was 109 % of control.
